Test results from patent US20220009914A1, “Analogs of Nitrofuran Antibiotics to Combat Resistance” (The Trustees of Indiana University, priority 2020, published 2022).
pIC50: −log10 of the molar value.

Experiments:
E. coli GroEL/ES [1] = molecular target: T1, E. coli GroEL/ES (Escherichia coli, UniProt P0A6F5); test: GroEL/ES-mediated dMDH refolding assay; format: biochemical
T1 construct: made in house; host or cells: GroEL in NEB 5-alpha E. coli; GroES in E. coli BL21 (DE3)
Description: Evaluating compounds for inhibition in the GroEL/ES-mediated dMDH refolding assay. All compounds were evaluated for inhibiting E. coli GroEL/ES-mediated refolding of the denatured MDH reporter enzyme. Reagent preparation: For these assays, four primary reagent stocks were prepared: 1) GroEL/ES-dMDH binary complex stock; 2) ATP initiation stock; 3) EDTA quench stock; 4) MDH enzymatic assay stock. Denatured MDH (dMDH) was prepared by 2-fold dilution of MDH (5 mg/ml, soluble pig heart MDH from Roche, product #10127248001) with denaturant buffer (7 M guanidine-HCl, 200 mM Tris, pH 7.4, and 50 mM DTT). MDH was completely denatured by incubating at room temperature for >45 min. The binary complex solutions were prepared by slowly adding the dMDH stock to a stirring stock with GroEL and GroES in folding buffer (50 mM Tris-HCl, pH 7.4, 50 mM KCl, 10 mM MgC2, and 1 mM DTT). […] For the ATP initiation stock, ATP solid was diluted into folding buffer to a final concentration of 2.5 mM. Quench solution contained 600 mM EDTA (pH 8.0). The MDH enzymatic assay stock consisted of 20 mM sodium mesoxalate and 1.6 mM NADH in reaction buffer (50 mM Tris-HCl, pH 7.4, 50 mM KCl, and 1 mM DTT).
Assay Protocol: First, 30 μL aliquots of the GroEL/ES-dMDH binary complex stocks were dispensed into clear, 384-well polystyrene plates. […] The chaperonin-mediated refolding cycles were initiated by addition of 20 μL of ATP stock (reagent concentrations during refolding cycle: 50 nM GroEL, 60 nM GroES, 12 nM dMDH, 1 mM ATP, and compounds of 100 μM to 46 nM, 3-fold dilution series) and the refolding reactions were incubated at 37° C. […] Next, the assay was quenched by addition of 10 μL of the EDTA stock to give a final concentration of 100 mM in the wells. […] A340 nm measurements were recorded at 0.5 minutes (start point) and at successive time points until the amount of NADH consumed reached ˜90% (end point, generally between 20-35 minutes).
Evaluating analogs for inhibiting GroEL/ES-mediated substrate refolding functions. […] We first evaluated all test compounds in our standard GroEL/ES-mediated refolding assays that employ either malate dehydrogenase (MDH) or rhodanese (Rho) as the denatured substrate reporter enzymes. When denatured, these enzymes are efficiently folded by GroEL/ES in the absence of inhibitors, and thus act as reporters to determine the degree of inhibition against the bacterial chaperonin system. Inhibition was examined in the presence of these two orthogonal substrates in order to support that GroEL/ES inhibitors were on-target. To further support on-target effects against GroEL/ES, we counter-screened for inhibition of the native MDH and Rho enzymatic reporter reactions, where test compounds were added after the denatured MDH and Rho substrate enzymes were completely refolded by GroEL/ES.

E. coli GroEL/ES [2] = molecular target: T1, E. coli GroEL/ES; test: GroEL/ES-mediated dMDH refolding assay in the presence of E. coli NfsB nitroreductase; format: biochemical; settings: for GroEL/ES inhibition in words: in the presence of E. coli NfsB
Description: Evaluating compounds for inhibition in the GroEL/ES-mediated dMDH refolding assay and native MDH activity counter-screen in the presence of E. coli NfsB nitroreductase. These assays were performed nearly identically to those mentioned above, but with a couple distinct modifications. For both assays, 10 μg/mL of the E. coli NfsB nitroreductase enzyme (Sigma product #N9284) was added to the initial GroEL/ES-dMDH solution. For the GroEL/ES-dMDH refolding assay, after stamping with compounds, 10 μL of a 2.4 mM NADH solution was added, followed by a 10 minute incubation period at 37° C. to bioactivate the nitrofuran analogs. The remainder of the assay was conducted as in our standard protocol where no NfsB nitroreductase was present. […] For the native MDH activity counter-screen in the presence of E. coli NfsB nitroreductase, the assay was performed as described above for the GroEL/ES-dMDH refolding assay with NfsB; however, compound addition to the assay plates was conducted after the EDTA quench step, followed by a 10 minute incubation period at 37° C. to bioactivate the nitrofuran analogs. […] Results presented represent the averages of IC50 values obtained from at least four replicates in each assay.
Evaluating analogs for inhibiting GroEL/ES-mediated substrate refolding functions in the presence of the E. coli NfsB type-1 nitroreductase. […] However, our standard GroEL/ES-mediated refolding assays and native substrate reporter counter-screens were conducted without nitroreductases present.

[3] = with E. coli NfsB nitroreductase, read-out: NfsB-GroEL/ES-dMDH Refolding IC50
[4] = without NfsB nitroreductase, read-out: GroEL/ES-dMDH Refolding IC50

T1 sequence (P0A6F5 2-548): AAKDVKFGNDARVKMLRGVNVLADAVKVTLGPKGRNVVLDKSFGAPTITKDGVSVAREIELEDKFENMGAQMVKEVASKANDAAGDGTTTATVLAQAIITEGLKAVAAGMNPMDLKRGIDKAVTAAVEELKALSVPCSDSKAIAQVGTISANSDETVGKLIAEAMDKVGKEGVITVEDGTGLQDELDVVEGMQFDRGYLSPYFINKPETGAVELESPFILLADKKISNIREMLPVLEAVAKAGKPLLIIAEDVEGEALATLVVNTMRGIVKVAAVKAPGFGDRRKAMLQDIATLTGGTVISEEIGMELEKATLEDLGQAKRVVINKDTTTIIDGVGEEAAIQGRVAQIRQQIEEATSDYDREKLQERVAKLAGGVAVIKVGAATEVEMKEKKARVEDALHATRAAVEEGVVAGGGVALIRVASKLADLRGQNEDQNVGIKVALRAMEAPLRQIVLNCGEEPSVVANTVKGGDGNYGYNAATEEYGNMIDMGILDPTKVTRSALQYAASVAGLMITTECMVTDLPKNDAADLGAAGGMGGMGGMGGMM

| SMILES | pIC50 (E. coli GroEL/ES [1]) | pIC50 (E. coli GroEL/ES [2]) | GroEL/ES inhibition in words (E. coli GroEL/ES [2]) | pIC50 (E. coli GroEL/ES [2]; [3]) | GroEL/ES inhibition in words (E. coli GroEL/ES [1]; standard dMDH and dRho refolding assays, no nitroreductase) | pIC50 (E. coli GroEL/ES [1]; [4]) |
| --- | --- | --- | --- | --- | --- | --- |
| O=[N+]([O-])c1ccc(O)c2ncccc12 [Nitroxoline, reference compound] | 4.30 | 4.57 | – | – | – | – |
| O=C(N/N=C/c1ccc([N+](=O)[O-])o1)c1ccc(O)cc1 [Nifuroxazide, reference compound] | < 4.00 | – | weak to moderate GroEL/ES inhibitors | 4.72 | – | – |
| O=C(N/N=C/c1ccc(O)c2ncccc12)c1ccc(Cl)s1 [Compound 4, 5-chloro-N′-((8-hydroxyquinolin-5-yl)methylene)thiophene-2-carbohydrazide] | 5.02 | 5.40 | – | – | – | – |
| CN(C)c1ccc(C(=O)N/N=C/c2ccc([N+](=O)[O-])o2)cc1 [Compound 21, 4-(dimethylamino)-N′-((5-nitrofuran-2-yl)methylene)benzohydrazide] | – | – | – | 4.92 | generally the most potent GroEL/ES inhibitors | 4.59 |
| O=C(N/N=C/c1ccc(O)c2ncccc12)c1ccc(O)cc1 [Compound 7, 4-hydroxy-N′-((8-hydroxyquinolin-5-yl)methylene)benzohydrazide] | 4.37 | 4.80 | – | – | – | – |
| O=C(N/N=C/c1ccc([N+](=O)[O-])o1)c1cccc(Oc2ccccc2)c1 [Compound 24, N′-((5-nitrofuran-2-yl)methylene)-3-phenoxybenzohydrazide] | 4.15 | 5.55 | – | – | – | – |
| O=C(N/N=C/c1ccc(O)c2ncccc12)c1ccc(NS(=O)(=O)c2ccc(Br)cc2)cc1 [Compound 14, 4-bromo-N-(4-(2-((8-hydroxyquinolin-5-yl)methylene)hydrazine-1-carbonyl)phenyl)benzenesulfonamide] | 4.85 | 5.44 | – | – | – | – |
| CN(C)c1ccc(C(=O)N/N=C/c2ccc(O)c3ncccc23)cc1 [Compound 8, 4-(dimethylamino)-N′-((8-hydroxyquinolin-5-yl)methylene)benzohydrazide] | 4.57 | 4.60 | – | – | – | – |
| O=C(N/N=C/c1ccc([N+](=O)[O-])o1)c1ccc(NS(=O)(=O)c2ccc(Br)cc2)cc1 [Compound 27, 4-bromo-N-(4-(2-((5-nitrofuran-2-yl)methylene)hydrazine-1-carbonyl)phenyl)benzenesulfonamide] | 4.44 | 5.70 | – | – | – | – |
| O=C(N/N=C/c1ccc([N+](=O)[O-])o1)c1ccc(Cl)s1 [Compound 17, 5-chloro-N′-((5-nitrofuran-2-yl)methylene)thiophene-2-carbohydrazide] | – | – | most potent at inhibiting GroEL/ES in the presence of NfsB | 5.49 | – | 4.06 |
| COc1ccc(C(=O)N/N=C/c2cccc3ncccc23)cc1 [Compound 31, 4-methoxy-N′-(quinolin-5-ylmethylene)benzohydrazide] | < 4.00 | < 4.08 | – | – | – | – |
| COc1ccc(C(=O)N/N=C/c2ccc(O)c3ncccc23)cc1 [Compound 1, N′-((8-hydroxyquinolin-5-yl)methylene)-4-methoxybenzohydrazide] | 4.11 | 4.18 | – | – | – | – |
